Data: patent US6420367B1, “Pyrimidine derivatives exhibiting antitumor activity” (Shionogo & Co., Ltd., priority 1998, dated 2002)
≈ marks a conversion by molar mass, not a printed value.

What was measured:
[1] = system: DT-R cells (pRRE3-luc-transfected v-ki-ras-transformed NIH3T3 cells); signal derived from Ras oncogene products; assay: Inhibitory effect against cellular signaling derived from Ras oncogene products: luciferase reporter, dissociation of DT-R from DT-C activity (MAC); format: cell-based, mouse; details: minimal tested concentration at which luciferase activities of DT-C cells and DT-R cells dissociated
Method in brief: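 DT-R (pRRE3-luc) and control DT-C (pGV-P) v-Ki-ras NIH3T3 cells were exposed 24 h to compound in 3-fold dilutions in DMEM/10% FCS at 37 °C, then lysed for luciferase luminescence. MAC is the lowest tested concentration at which DT-R and DT-C activities dissociate.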

[2] = system: DT-C cells (pGV-P-transfected v-ki-ras-transformed NIH3T3 cells); assay: Luciferase activity in control DT-C cells (IC50-C): non-specific transcription-inhibitory effect or cytotoxicity; format: cell-based, mouse; details: tested concentration nearest to 50% inhibition in DT-C cells; index of non-specific transcription inhibition or cytotoxicity
From the text: Test Example 1 Inhibitory Effect Against Cellular Signaling Derived From Ras Oncogene Products
1) Establishment of Cell Lines Used in Assay
Based on the reporter plasmid (pGV-P (Toyo Ink, Japan)), in which luciferase gene was ligated to SV40-derived minimal promoter, we constructed a plasmid designated pRRE3-luc by inserting 3 copies of chemically synthesized oligonucleotides (Sequence: CAGGATATGACTCT, derived from mouse NVL-3 (M. A. Reddy et al.(1992)Mol. Endocrinol., 6, 1051)) into upstream of the promoter. v-ki-ras-transformed NIH3T3 cells (DT cells, provided by Dr. Makoto Noda (Kyoto Univ., School of medicine)) were transfected with this plasmid by liposome-mediated transfection and transfected cell lines stably incorporated and maintained each plasmid were obtained. We named pGV-P and pRRE3-transfected cell line as DT-C and DT-R, respectively and used in the assay described below.
2) Preparation of Samples
i) All the cell lines were cultured in Dulbecco's Modified Essential Medium (DMEM: 10% Fetal Calf Serum(FCS: Hyclone, USA)) including […] kanamycin (Meiji Seika, Japan) in humidified incubator under condition of 5% CO2 at 37° C.
ii) DT-C and DT-R cells were seeded at 2500 cells/well into flat-bottom 96 well multiplate (Sumitomo bakelite) and incubated for 24 hours.
iii) Test compounds were prepared as 1 mg/ml DMSO solution.
iv) The solution of test compounds were added to the culture. Tested compounds are used at the concentration from […] to 0.51 ng/ml with by 3-fold dilution.
v) After 24 hours, the culture supernatant was completely aspirated and […] of cell-lysing solution (PGC-50 (Toyo Ink, Japan)) was added before cells were dried up. In order to the cells were lysed completely, multiwell plates were left at room temperature for 10 to 30 min. The plates were wrapped up and stored at −20° C. till the day of measurement.
3) Measurement of Samples
i) Melt the samples by putting 96 well multiplate at 37° C. and add 90 μl/well 25 mM Tris (pH 7.5).
ii) Transfer 50 μl of the sample (110 μl) to the 96 well microplate for measurement (Microlite 1 (Dynatech)).
iii) Measure the samples by the luminometer, LUMINOUS CT9000D (Dia-Yatron, Japan). We used Pickagene luminescence kit PGL2000 or LT2.0 (Toyo Ink, Japan) as substrates for luminescence measurement (50 μl/well).
4) Judgment of the Results
i) The luciferase activity of DT-C cells and DT-R cells were plotted in the graph where the relative activity and the compound concentration were expressed as Y-axis and X-axis, respectively. We judged by the degree of dissociation between the activities of DT-C cells and DT-R cells as an index.
ii) Concretely, efficacy of the compound was expressed by two values described below.
b) Among the points of concentration tested, the concentration which is the nearest to 50% inhibition concentration at DT-C cells (IC50-C), was shown as an index of non-specific transcription-inhibitory effect or of cytotoxicity. In case of positive compounds, 50% inhibition concentration above the area of active concentration in DT-C cells was expressed as IC50-C.

[3] = system: human colon cancer HT29; assay: In vitro cell growth inhibition test, MTT assay; format: cell-based; details: MTT assay 4 days after compound addition
Method in brief: (§1)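 Growth inhibition was measured by MTT assay across a panel of human tumour cell lines that also included pancreatic cancer PANC-1.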

[4] = system: human lung adenocarcinoma A549; assay: In vitro cell growth inhibition test, MTT assay; format: cell-based; details: MTT assay 4 days after compound addition
Method in brief: as §1

[5] = system: human squamous lung cancer Ma44; assay: In vitro cell growth inhibition test, MTT assay; format: cell-based; details: MTT assay 4 days after compound addition
Method in brief: as §1

[6] = system: human squamous lung cancer RERF-RC-AI; assay: In vitro cell growth inhibition test, MTT assay; format: cell-based; details: MTT assay 4 days after compound addition
Method in brief: as §1

[7] = system: human pancreas cancer PANC-1; assay: In vitro cell growth inhibition test, MTT assay; format: cell-based; details: MTT assay 4 days after compound addition
Method in brief: as §1

| Structure (SMILES) | IC50, HT29 [3] [µg/mL] | IC50, A549 [4] [µg/mL] | IC50, Ma44 [5] [µg/mL] | IC50, RERF-LC-AI [6] [µg/mL] | IC50, PANC-1 [7] [µg/mL] | MAC (Minimal Active Concentration) [1] [µg/mL] | IC50-C [2] [µg/mL] |
| --- | --- | --- | --- | --- | --- | --- | --- |
| CCNC(=Nc1nc(C)ncc1CSc1nnc(-c2ccc(N)cc2F)o1)NCC [Compound A-81] | 0.007 (≈ 0.0163 µM) | 0.023 (≈ 0.0534 µM) | 0.032 (≈ 0.0743 µM) | 0.009 (≈ 0.0209 µM) | 0.016 (≈ 0.0372 µM) | 0.0412 | >10 |
| CCNC(=Nc1nc(C)ncc1CSc1nnc(-c2ccc(N)cc2)o1)NC [Compound A-168] | 0.0055 (≈ 0.0138 µM) | 0.012 (≈ 0.0301 µM) | 0.017 (≈ 0.0427 µM) | 0.0028 (≈ 0.00703 µM) | 0.0059 (≈ 0.0148 µM) | 0.0412 | >10 |
| CNC(=Nc1nc(C)ncc1CSc1nnc(-c2ccc(N)cc2)o1)NC [Compound A-147] | 0.008 (≈ 0.0208 µM) | 0.1 (≈ 0.26 µM) | 0.071 (≈ 0.185 µM) | 0.008 (≈ 0.0208 µM) | 0.018 (≈ 0.0468 µM) | 0.123 | >10 |
| CCCNC(=Nc1nc(C)ncc1CSc1nnc(-c2ccc(N)cc2)o1)NCCC [Compound A-144] | 0.006 (≈ 0.0136 µM) | 0.019 (≈ 0.0431 µM) | 0.031 (≈ 0.0704 µM) | 0.007 (≈ 0.0159 µM) | 0.016 (≈ 0.0363 µM) | 0.0137 | >10 |
| CCNC(=Nc1nc(CC)ncc1CSc1nnc(-c2ccccc2N)o1)NCC [Compound A-37] | 0.03 (≈ 0.0703 µM) | – | 0.24 (≈ 0.563 µM) | 0.021 (≈ 0.0492 µM) | 0.025 (≈ 0.0586 µM) | 0.0412 | 3.33 (≈ 7.81 µM) |

Continued, in another order:

| IC50, HT29 [3] [µg/mL] | IC50, A549 [4] [µg/mL] | IC50, Ma44 [5] [µg/mL] | IC50, RERF-LC-AI [6] [µg/mL] | IC50, PANC-1 [7] [µg/mL] | Structure (SMILES) | MAC (Minimal Active Concentration) [1] [µg/mL] | IC50-C [2] [µg/mL] |
| --- | --- | --- | --- | --- | --- | --- | --- |
| 0.02 (≈ 0.0452 µM) | 0.058 (≈ 0.131 µM) | 0.02 (≈ 0.0452 µM) | 0.02 (≈ 0.0452 µM) | 0.02 (≈ 0.0452 µM) | CCNC(=Nc1ncncc1CSc1nnc(-c2ccc([N+](=O)[O-])cc2)o1)NC(C)C [Compound A-121] | <0.000508 | >10 |
| 0.025 (≈ 0.0548 µM) | 0.03 (≈ 0.0657 µM) | 0.028 (≈ 0.0613 µM) | 0.015 (≈ 0.0329 µM) | 0.028 (≈ 0.0613 µM) | CCNC(=Nc1nc(CC)ncc1CSc1nnc(-c2ccc([N+](=O)[O-])cc2)o1)NCC [Compound A-131] | 0.0412 | >10 |
| 0.0077 (≈ 0.0174 µM) | 0.014 (≈ 0.0316 µM) | 0.0054 (≈ 0.0122 µM) | 0.0027 (≈ 0.0061 µM) | 0.0065 (≈ 0.0147 µM) | CNC(=Nc1nc(C)ncc1CSc1nnc(-c2ccc([N+](=O)[O-])cc2)o1)NC(C)C [Compound A-170] | <0.000508 | >10 |
| 0.03 (≈ 0.0619 µM) | 0.046 (≈ 0.0949 µM) | 0.04 (≈ 0.0825 µM) | 0.043 (≈ 0.0887 µM) | 0.026 (≈ 0.0537 µM) | CCCNC(=Nc1nc(CC)ncc1CSc1nnc(-c2ccc([N+](=O)[O-])cc2)o1)NCCC [Compound A-138] | 0.0412 | 1.11 (≈ 2.29 µM) |
| 0.014 (≈ 0.0316 µM) | 0.18 (≈ 0.407 µM) | 0.052 (≈ 0.118 µM) | 0.011 (≈ 0.0249 µM) | 0.024 (≈ 0.0542 µM) | CCCNC(=Nc1nc(C)ncc1CSc1nnc(-c2ccc([N+](=O)[O-])cc2)o1)NC [Compound A-146] | 0.0137 | >10 |
| 0.08 (≈ 0.175 µM) | – | 0.009 (≈ 0.0197 µM) | 0.006 (≈ 0.0131 µM) | 0.009 (≈ 0.0197 µM) | CCCNC(=Nc1ncncc1CSc1nnc(-c2ccc([N+](=O)[O-])cc2)o1)NCCC [Compound A-155] | 0.00457 | 3.33 (≈ 7.29 µM) |
